Patent publication US20110053916A1 (Vertex Pharmaceuticals Incorporated, priority 2009, published 2011)

Columns and labels:
[1] = molecular target: T1, PknB (Mycobacterium tuberculosis, UniProt P9WI81); experiment: biochemical; parameters: species or system M. tuberculosis; conditions: 3 nM PknB, 6 uM GarA, 3 μM ATP, 30 min; competitive tight-binding fit; several symbols in a cell = repeat determinations; read-out: Ki Values
T1 construct: made in house

[2] = system: Mycobacterium tuberculosis H37Ra; experiment: Mycobacterium tuberculosis growth inhibition assay (microtiter dilution, resazurin reduction); assay type: cell-based; conditions: 7H9 broth, 9 days + 24 h resazurin, lowest concentration inhibiting resazurin reduction by >70%, several symbols in a cell = repeat determinations
Procedure, shortened: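 Resazurin-based microtiter dilution MIC: compounds in 7- or 11-step two-fold series with ~1×10^6 cells/mL H37Ra in 7H9/10% ADC, 9 days at 37 °C, then 24 h with dye. MIC is the lowest concentration giving >70% inhibition of resazurin reduction relative to DMSO controls, by 492/595 nm fluorescence.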

T1 sequence (P9WI81 whole entry): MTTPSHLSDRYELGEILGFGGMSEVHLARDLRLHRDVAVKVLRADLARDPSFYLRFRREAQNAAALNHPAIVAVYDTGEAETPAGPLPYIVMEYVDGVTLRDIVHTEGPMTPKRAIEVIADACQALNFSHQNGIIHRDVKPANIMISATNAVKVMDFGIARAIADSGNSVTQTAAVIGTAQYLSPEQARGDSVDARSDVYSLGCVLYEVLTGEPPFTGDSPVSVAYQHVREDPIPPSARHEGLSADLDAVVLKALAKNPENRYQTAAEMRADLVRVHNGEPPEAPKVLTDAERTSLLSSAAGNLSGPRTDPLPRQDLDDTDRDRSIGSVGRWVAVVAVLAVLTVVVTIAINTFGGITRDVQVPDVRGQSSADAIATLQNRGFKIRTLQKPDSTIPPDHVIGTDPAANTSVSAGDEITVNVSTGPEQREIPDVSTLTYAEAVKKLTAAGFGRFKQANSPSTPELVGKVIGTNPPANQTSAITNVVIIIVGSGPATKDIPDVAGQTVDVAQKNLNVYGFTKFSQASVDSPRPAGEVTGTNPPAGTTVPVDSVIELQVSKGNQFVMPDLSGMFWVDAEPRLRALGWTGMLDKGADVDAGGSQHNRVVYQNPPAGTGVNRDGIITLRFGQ

SMILES | Ki [1] [nM] | MIC values [2]
C#Cc1cnc(-c2ccc(C(O)CCCO)s2)nc1Nc1cc(C2CC2)[nH]n1 (stereo not drawn) [Compound 223, 1-[5-[4-[(5-cyclopropyl-1H-pyrazol-3-yl)amino]-5-ethynyl-pyrimidin-2-yl]-2-thienyl]butane-1,4-diol] | 1 to 10 | B++
Cc1cc(Nc2nc(-c3ccc(S(N)(=O)=O)s3)ncc2Cl)n[nH]1 [Compound 224, 5-[5-chloro-4-[(5-methyl-1H-pyrazol-3-yl)amino]-pyrimidin-2-yl]thiophene-2-sulfonamide] | 1 to 10 | B++
CC(C)c1cc(Nc2nc(-c3ccc(S(N)(=O)=O)s3)ncc2Cl)n[nH]1 [Compound 225, 5-[5-chloro-4-[(5-isopropyl-1H-pyrazol-3-yl)amino]-pyrimidin-2-yl]thiophene-2-sulfonamide] | 1 to 10 | B++
CC(C#N)c1ccc(-c2ncc(Cl)c(Nc3cc(C4CC4)[nH]n3)n2)s1 (stereo not drawn) [Compound 226, 2-[5-[5-chloro-4-[(5-cyclopropyl-1H-pyrazol-3-yl)amino]-pyrimidin-2-yl]-2-thienyl]propanenitrile] | 10 to 50 | B++
C#Cc1cnc(-c2ccc(C(C)C#N)s2)nc1Nc1cc(C2CC2)[nH]n1 (stereo not drawn) [Compound 227, 2-[5-[4-[(5-cyclopropyl-1H-pyrazol-3-yl)amino]-5-ethynyl-pyrimidin-2-yl]-2-thienyl]propanenitrile] | 1 to 10 | B++
OC1/C=C\c2c(n[nH]c2C2CC2)Nc2nc(ncc2Cl)-c2ccccc21 (stereo not drawn) [Compound 232, chloro-cyclopropyl-BLAHol] | > 4000 | B, C
CC(C)(C)c1cc(Nc2nc(-c3ccc(S(N)(=O)=O)s3)ncc2Cl)n[nH]1 [Compound 236, 5-(4-(5-tert-butyl-1H-pyrazol-3-ylamino)-5-chloropyrimidin-2-yl)thiophene-2-sulfonamide] | 100 to 500 | A+, A, A, A, A
C#Cc1cnc(-c2ccc(C(C)(C)C#N)s2)nc1Nc1cc(C2CC2)[nH]n1 [Compound 237, 2-[5-[4-[(5-cyclopropyl-1H-pyrazol-3-yl)amino]-5-ethynyl-pyrimidin-2-yl]-2-thienyl]-2-methyl-propanenitrile] | 1 to 10 | B++
CC(C)(C#N)c1ccc(-c2ncc(Cl)c(Nc3cc(C4CC4)[nH]n3)n2)s1 [Compound 238, 2-[5-[5-chloro-4-[(5-cyclopropyl-1H-pyrazol-3-yl)amino]-pyrimidin-2-yl]-2-thienyl]-2-methyl-propanenitrile] | 1 to 10 | B++
NS(=O)(=O)c1ccc(-c2ncc(Cl)c(Nc3cc(C4CC4)[nH]n3)n2)o1 [Compound 240, 5-(5-chloro-4-(5-cyclopropyl-1H-pyrazol-3-ylamino)pyrimidin-2-yl)furan-2-sulfonamide] | 10 to 50 | B++
C#Cc1cnc(C2=CCN(C(=O)OC(C)(C)C)CC2)nc1Nc1cc(C2CC2)[nH]n1 [Compound 250, Tert-butyl 4-(4-(5-cyclopropyl-1H-pyrazol-3-ylamino)-5-ethynylpyrimidin-2-yl)-5,6-dihydropyridine-1(2H)-carboxylate] | 100 to 500 | B+
NS(=O)(=O)c1ccc(-c2ncc(NC=O)c(Nc3cc(C4CC4)[nH]n3)n2)s1 [Compound 252, N-[4-[(5-cyclopropyl-1H-pyrazol-3-yl)amino]-2-(5-sulfamoyl-2-thienyl)-pyrimidin-5-yl]formamide] | 10 to 50 | B+
N#CCC(=O)Nc1cnc(-c2ccc(S(N)(=O)=O)s2)nc1Nc1cc(C2CC2)[nH]n1 [Compound 254, 2-cyano-N-[4-[(5-cyclopropyl-1H-pyrazol-3-yl)amino]-2-(5-sulfamoyl-2-thienyl)-pyrimidin-5-yl]acetamide] | 100 to 500 | B, C
C=CCCC(=O)c1ncc(Cl)c(Nc2cc(C3CC3)[nH]n2)n1 [Compound 256, 1-[5-chloro-4-[(5-cyclopropyl-1H-pyrazol-3-yl)amino]-pyrimidin-2-yl]pent-4-en-1-one] | 500 to 1000 | B+
CC(C)(C)NS(=O)(=O)c1ccc(-c2ncc(Cl)c(Nc3cc(C4CCN(C(=O)OCc5ccccc5)C4)n[nH]3)n2)s1 (stereo not drawn) [Compound 257, benzyl 3-[5-[[5-chloro-2-[5-(tert-butylsulfamoyl)-2-thienyl]-pyrimidin-4-yl]amino]-1H-pyrazol-3-yl]pyrrolidine-1-carboxylate] | > 4000 | B++
CC(C)(C)OC(=O)NCc1ccc(-c2ncc(Cl)c(Nc3cc(C4CC4)n[nH]3)n2)s1 [Compound 261, tert-butyl [[5-[5-chloro-4-[(5-cyclopropyl-2H-pyrazol-3-yl)amino]-pyrimidin-2-yl]-2-thienyl]methylamino]formate] | 100 to 500 | B++
Cc1cc(Nc2cc(C3CC3)[nH]n2)nc(-c2ccc(S(N)(=O)=O)s2)n1 [Compound 265, 5-[4-[(5-cyclopropyl-1H-pyrazol-3-yl)amino]-6-methyl-pyrimidin-2-yl]thiophene-2-sulfonamide] | 1 to 10 | B++
Cc1nc(-c2ccc(S(N)(=O)=O)s2)nc(Nc2cc(C3CC3)[nH]n2)c1Cl [Compound 266, 5-[5-chloro-4-[(5-cyclopropyl-1H-pyrazol-3-yl)amino]-6-methyl-pyrimidin-2-yl]thiophene-2-sulfonamide] | 1 to 10 | A+, A, A, C
C#Cc1c(C)nc(-c2ccc(S(N)(=O)=O)s2)nc1Nc1cc(C2CC2)[nH]n1 [Compound 267, 5-(4-(3-cyclopropyl-1H-pyrazol-5-ylamino)-5-ethynyl-6-methylpyrimidin-2-yl)thiophene-2-sulfonamide] | 1 to 10 | A+, A
C#Cc1c(C)nc(-c2ccc(S(=O)(=O)NC(C)(C)C)s2)nc1Nc1cc(C2CC2)[nH]n1 [Compound 268, 5-[4-[(5-cyclopropyl-1H-pyrazol-3-yl)amino]-5-ethynyl-6-methyl-pyrimidin-2-yl]-N-tert-butyl-thiophene-2-sulfonamide] | 10 to 50 | B++
CC(C)(C)NS(=O)(=O)c1ccc(-c2ccc(N)c(Nc3cc(C4CC4)n[nH]3)n2)s1 [Compound 273, 5-[5-amino-6-[(5-cyclopropyl-2H-pyrazol-3-yl)amino]-2-pyridyl]-N-tert-butyl-thiophene-2-sulfonamide] | 10 to 50 | B+
NS(=O)(=O)c1ccc(-c2ccc([N+](=O)[O-])c(Nc3cc(C4CC4)n[nH]3)n2)s1 [Compound 275, 5-[6-[(5-cyclopropyl-2H-pyrazol-3-yl)amino]-5-nitro-2-pyridyl]thiophene-2-sulfonamide] | 1 to 10 | B++
CNc1cc(Nc2cc(C3CC3)n[nH]2)nc(-c2ccc(S(N)(=O)=O)s2)n1 [Compound 279, 5-[4-[(5-cyclopropyl-2H-pyrazol-3-yl)amino]-6-methylamino-pyrimidin-2-yl]thiophene-2-sulfonamide] | 1000 to 2000 | B++
NS(=O)(=O)c1ccc(-c2nc(Nc3cc(C4CC4)n[nH]3)cc(N3CCCC3)n2)s1 [Compound 284, 5-[4-[(5-cyclopropyl-2H-pyrazol-3-yl)amino]-6-pyrrolidin-1-yl-pyrimidin-2-yl]thiophene-2-sulfonamide] | 100 to 500 | B++
